Here are results for one compound from patent US9657263B2 (priority 2010, dated 2017).

The subject of test [1] is influenza A virus. The arrangement: species or system BALB/c mice. Particulars: mouse, in vivo.
Test [2] deals with influenza B virus. The arrangement: species or system BALB/c mice. The following applies: mouse, in vivo.

The structures appear in SMILES notation.

Take `CCOC(=O)C1=C[C@@H](OC(CC)CC)[C@H](NC(C)=O)[C@@H](N)C1` [Tamiflu, oseltamivir phosphate]: in test [1], the “death rate (FIG. 4a)” value is 33%. Also, in test [2], the clinical symptoms entry was “significant weight loss, cough, deem and messy hairs, decreased activity”; the survival rate was determined as 100%.
